Reference: patent US10519099B2, “Cystobactamides” (priority 2014, dated 2019)
Converted amounts (≈) assume the structure as drawn.

Tests used:
[1] = system: Acinetobacter baumannii DSM-30008; assay: MIC microdilution, A. baumannii DSM-30008; assay type: cell-based
Method: (§1) Indicator strains used in susceptibility assays were either part of our strain collection or purchased from the German Collection of Microorgansims and Cell Cultures (DSMZ) or from the American Type Culture Collection (ATCC). E. coli strain WT and corresponding E. coli mutants were kindly provided by Prof. Dr. P. Heisig, Pharmaceutical Biology and Microbiology, University of Hamburg. E. coli strains JW0401-1 (WT) and Δtsx were obtained from the CGSC collection.
(§2) MIC values were determined in standardized microdilution assays. Overnight cultures were diluted in the appropriate growth medium to achieve an inoculum of 10^4-10^6 cfu/mL. Yeasts were grown in Myc medium (1% phytone peptone, 1% glucose, 50 mM HEPES, pH 7.0), S. pneumonia and Enterococcus spp. in tryptic soy broth (TSB: 1.7% peptone casein, 0.3% peptone soymeal, 0.25% glucose, 0.5% NaCl, 0.25% K2HPO4; pH 7.3); M. smegmatis in Middlebrook 7H9 medium supplemented with 10% Middlebrook ADC enrichment and 2 ml/I glycerol). All other listed bacteria were grown in Müller-Hinton broth (0.2% beef infusion solids, 1.75% casein hydrolysate, 0.15% starch, pH 7.4). Cystobactamides and reference drugs were added directly to the cultures in sterile 96-well plates as duplicates and serial dilutions were prepared. Microorganisms were grown on a microplate shaker (750 rpm, 30-37° C., 18-48 h), except S. pneumonia, which was grown at non-shaking conditions (37° C., 5% CO2, 18 h). Growth inhibition was assessed by visual inspection and the MIC was defined as the lowest concentration of compound that inhibited visible growth.

[2] = system: Escherichia coli (TolC-deficient); assay: MIC microdilution, E. coli (TolC-deficient); assay type: cell-based; conditions: larger panel
Method: as §1
as §2, with “Cystobactamides and reference drugs were added directly to the cultures in sterile 96-well plates as duplicates and serial dilutions were prepared. Microorganisms were grown on a microplate shaker (750 rpm, 30-37° C., 18-48 h), except S. pneumonia, which was grown at non-shaking conditions (37° C., 5% CO2, 18 h).” left out

[3] = system: Enterobacter cloacae DSM-30054; assay: MIC microdilution, Enterobacter cloacae DSM-30054; assay type: cell-based; conditions: larger panel
Method: Dr. P. Heisig, Pharmaceutical Biology and Microbiology, University of Hamburg.
Overnight cultures were diluted in the appropriate growth medium to achieve an inoculum of 10^4-10^6 cfu/mL. […] Cystobactamides and reference drugs were added directly to the cultures in sterile 96-well plates as duplicates and serial dilutions were prepared. Microorganisms were grown on a microplate shaker (750 rpm, 30-37° C., 18-48 h), except S. pneumonia, which was grown at non-shaking conditions (37° C., 5% CO2, 18 h). Growth inhibition was assessed by visual inspection and the MIC was defined as the lowest concentration of compound that inhibited visible growth.

E. coli gyrase = biological target: T1, E. coli gyrase (Escherichia coli, UniProt P0AES4+P0AES6); assay: E. coli gyrase DNA supercoiling assay; assay type: biochemical; conditions: read-out: IC50 Ec gyrase (sc)
T1 construct: purchased Inspiralis, Norwich, UK
Method: (§3) To test the anti-gyrase activity of cystobactamides, commercial E. coli and P. aeruginosa gyrase supercoiling kits (Inspiralis, Norwich, UK) were used. For standard reactions 0.5 μg relaxed plasmid were mixed with 1 unit gyrase in 1× reaction buffer (see kit manual) and incubated for 30 min at 37° C. The reactions were quenched by the addition of DNA gel loading buffer containing 10% (w/v) SDS. The samples were separated on 1% (w/v) agarose gels and DNA was visualized using EtBr. All natural products stock solutions and dilutions were prepared in 100% DMSO and added to the supercoiling reactions giving a final DMSO concentration of 2% (v/v).

[4] = system: Citrobacter freundii DSM-30039; assay: MIC microdilution, C. freundii DSM-30039; assay type: cell-based
Method: as §1, §2

E. coli JW0401-1 (WT) = assay: MIC microdilution, E. coli JW0401-1 (WT); assay type: cell-based, Escherichia coli; conditions: Gram-negative set
Method: as §1
as §2, with “Cystobactamides and reference drugs were added directly to the cultures in sterile 96-well plates as duplicates and serial dilutions were prepared. Microorganisms were grown on a microplate shaker (750 rpm, 30-37° C., 18-48 h), except S. pneumonia, which was grown at non-shaking conditions (37° C., 5% CO2, 18 h).” left out

E. coli DSM-1116 = assay: MIC microdilution, E. coli DSM-1116; assay type: cell-based, Escherichia coli
Method: as §1, §2

[5] = system: CHO-K1 (Chinese hamster ovary cell line); assay: Cytotoxicity (MTT), CHO-K1 cell line; assay type: cell-based; conditions: 5 d incubation
Method: CHO-K1 cells were obtained from the DSMZ and were cultured under conditions recommended by the depositor. Cells were seeded at 6×10^3 cells/well of 96-well plates in 180 μl complete medium and treated with compounds in serial dilution after 2 h of equilibration. Each sample was tested in duplicate as well as the internal DMSO control. After 5 d incubation, 20 μl of 5 mg/ml MTT (thiazolyl blue tetrazolium bromide) in PBS was added per well and it was further incubated for 2 h at 37° C. The medium was then discarded and cells were washed with 100 μl PBS before adding 100 μl 2-propanol/10 N HCl (250:1) in order to dissolve formazan granules. The absorbance at 570 nm was measured using a microplate reader (Tecan Infinite M200Pro), and cell viability was expressed as percentage relative to the respective […] control.

[6] = system: Serratia marcescens DSM-30121; assay: MIC microdilution, Serratia marcescens DSM-30121; assay type: cell-based; conditions: larger panel
Method: as §1, §2

[7] = system: Proteus vulgaris DSM-2140; assay: MIC microdilution, P. vulgaris DSM-2140; assay type: cell-based
Method: as §1, §2

[8] = system: Pseudomonas aeruginosa DSM-46316 (ESBL); assay: MIC microdilution, P. aeruginosa DSM-46316 (ESBL); assay type: cell-based; conditions: larger panel
Method: as §1, §2

[9] = system: P. aeruginosa DSM-24600 (ESBL); assay: MIC microdilution, P. aeruginosa DSM-24600 (ESBL); assay type: cell-based, Pseudomonas aeruginosa
Method: as §1, §2

[10] = system: Staphylococcus epidermidis DSM-28765; assay: MIC microdilution, Staphylococcus epidermidis DSM-28765; assay type: cell-based; conditions: larger panel
Method: as §1, §2

[11] = system: Pseudomonas aeruginosa ATCC27853; assay: MIC microdilution, P. aeruginosa ATCC27853; assay type: cell-based; conditions: larger panel
Method: as §1, §2

P. aeruginosa gyrase = biological target: T2, P. aeruginosa gyrase (Pseudomonas aeruginosa, UniProt P48372+Q9I7C2); assay: P. aeruginosa gyrase DNA supercoiling assay; assay type: biochemical; conditions: read-out: IC50 Pa gyrase (sc)
T2 construct: purchased Inspiralis, Norwich, UK
Method: as §3

[12] = system: E. coli DSM-26863 (tolC3); assay: MIC microdilution, E. coli DSM-26863 (tolC3); assay type: cell-based, Escherichia coli
Method: as §1, §2

[13] = system: Pseudomonas aeruginosa PA14; assay: MIC microdilution, P. aeruginosa PA14; assay type: cell-based; conditions: larger panel
Method: as §1, §2

E. coli Δtsx = assay: MIC microdilution, E. coli Δtsx; assay type: cell-based, Escherichia coli; conditions: Gram-negative set
Method: as §1
as §2, with “Cystobactamides and reference drugs were added directly to the cultures in sterile 96-well plates as duplicates and serial dilutions were prepared. Microorganisms were grown on a microplate shaker (750 rpm, 30-37° C., 18-48 h), except S. pneumonia, which was grown at non-shaking conditions (37° C., 5% CO2, 18 h).” left out

[14] = system: Enterococcus faecium DSM-20477; assay: MIC microdilution, Enterococcus faecium DSM-20477; assay type: cell-based; conditions: larger panel
Method: as §1, §2

[15] = system: E. coli WT-III [marRΔ74bp]; assay: MIC microdilution, E. coli WT-III [marRΔ74bp]; assay type: cell-based, Escherichia coli
Method: as §1, §2

[16] = system: E. coli WT-3 [gyrA(S83L, D87G)]; assay: MIC microdilution, E. coli WT-3 [gyrA(S83L, D87G)]; assay type: cell-based, Escherichia coli
Method: as §1, §2

[17] = system: Pseudomonas aeruginosa DSM-24599; assay: MIC microdilution, P. aeruginosa DSM-24599; assay type: cell-based; conditions: larger panel
Method: as §1, §2

E. coli WT = assay: MIC microdilution, E. coli WT; assay type: cell-based, Escherichia coli
Method: as §1, §2

`CO[C@@H](C(N)=O)[C@H](NC(=O)c1ccc(NC(=O)c2ccc([N+](=O)[O-])cc2)cc1)C(=O)Nc1ccc(C(=O)Nc2ccc(C(=O)Nc3ccc(C(=O)O)cc3)c(O)c2OC(C)C)cc1` [Cys 861-2] was tested, and the “MIC A. baumannii DSM-30008” value ([1]; Gram-negative set) was 0.5 µg/mL (≈ 0.58 µM), the “MIC Acinetobacter baumannii DSM-30008” value ([1]; larger panel) was 0.5 µg/mL (≈ 0.58 µM) and the “MIC Escherichia coli (TolC-deficient)” value [2] was 0.06 µg/mL (≈ 0.0696 µM). The “MIC Enterobacter cloacae DSM-30054” value [3] was 64 µg/mL (≈ 74.3 µM), the IC50 (E. coli gyrase) was 280 nM and the “MIC C. freundii DSM-30039” value ([4]; Gram-negative set) was 0.06 µg/mL (≈ 0.0696 µM). For the same molecule, the “MIC Citrobacter freundii DSM-30039” value ([4]; larger panel) was 0.06 µg/mL (≈ 0.0696 µM), the “MIC E. coli JW0401-1 (WT)” value (E. coli JW0401-1 (WT)) was 0.25 µg/mL (≈ 0.29 µM) and the “MIC E. coli DSM-1116” value (E. coli DSM-1116; Gram-negative set) was 0.13 µg/mL (≈ 0.151 µM). For the same molecule, the “MIC Escherichia coli DSM-1116” value (E. coli DSM-1116; larger panel) was 0.4 µg/mL (≈ 0.464 µM), the IC50 [5] was > 100000 nM and the “MIC Serratia marcescens DSM-30121” value [6] was 64 µg/mL (≈ 74.3 µM). The “MIC P. vulgaris DSM-2140” value ([7]; Gram-negative set) was 0.25 µg/mL (≈ 0.29 µM), the “MIC Proteus vulgaris DSM-2140” value ([7]; larger panel) was 0.25 µg/mL (≈ 0.29 µM) and the “MIC Pseudomonas aeruginosa DSM-46316 (ESBL)” value [8] was 2 µg/mL (≈ 2.32 µM). For the same molecule, the “MIC P. aeruginosa DSM-24600 (ESBL)” value ([9]; Gram-negative set) was 1 µg/mL (≈ 1.16 µM), the “MIC Pseudomonas aeruginosa DSM-24600 (ESBL)” value ([9]; larger panel) was 1 µg/mL (≈ 1.16 µM) and the “MIC Staphylococcus epidermidis DSM-28765” value [10] was 0.5 µg/mL (≈ 0.58 µM). The “MIC Pseudomonas aeruginosa ATCC27853” value [11] was 4 µg/mL (≈ 4.64 µM), the “genotoxic effect, micronucleus formation” value (CHO-K1 cell line) was “No detectable genotoxic effect” and the IC50 (P. aeruginosa gyrase) was 180 nM. The “MIC E. coli DSM-26863 (tolC3)” value ([12]; Gram-negative set) was 0.06 µg/mL (≈ 0.0696 µM), the “MIC Escherichia coli DSM-26863 (tolC3)” value ([12]; larger panel) was 0.4 µg/mL (≈ 0.464 µM) and the “MIC Pseudomonas aeruginosa PA14” value [13] was 2 µg/mL (≈ 2.32 µM). For the same molecule, the “MIC E. coli Δtsx” value (E. coli Δtsx) was 0.25 µg/mL (≈ 0.29 µM), the “MIC Enterococcus faecium DSM-20477” value [14] was 0.5 µg/mL (≈ 0.58 µM) and the “MIC E. coli WT-III [marRΔ74bp]” value ([15]; Gram-negative set) was 0.5 µg/mL (≈ 0.58 µM). The “MIC Escherichia coli WTIII (marRΔ74bp)” value ([15]; larger panel) was 0.5 µg/mL (≈ 0.58 µM), the “MIC E. coli WT-3 [gyrA(S83L, D87G)]” value ([16]; Gram-negative set) was 0.5 µg/mL (≈ 0.58 µM) and the “MIC Escherichia coli WT-3 [gyrA(S83L, D87G)]” value ([16]; larger panel) was 0.5 µg/mL (≈ 0.58 µM). The “MIC Pseudomonas aeruginosa DSM-24599” value [17] was 2 µg/mL (≈ 2.32 µM), the “MIC E. coli WT” value (E. coli WT; Gram-negative set) was 0.13 µg/mL (≈ 0.151 µM) and the “MIC Escherichia coli WT” value (E. coli WT; larger panel) was 0.125 µg/mL (≈ 0.145 µM).
